Test results from PubChem BioAssay (NCI).
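Results reflect a 48-hour exposure of cells in 96-well plates to compound at five concentrations. At the GI50, growth is halved. The concentration for full growth arrest is given as TGI.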

Experiments:
Experiment in all cases: growth of human tumour cells (NCI), 48 h
786-0 renal = tested on: 786-0 renal
A498 renal = tested on: A498 renal
A549 NSCLC = tested on: A549 NSCLC
ACHN renal = tested on: ACHN renal
BT-549 breast = tested on: BT-549 breast
CAKI-1 renal = tested on: CAKI-1 renal
CCRF-CEM leukemia = tested on: CCRF-CEM leukemia
COLO 205 colon = tested on: COLO 205 colon
DU-145 prostate = tested on: DU-145 prostate
EKVX NSCLC = tested on: EKVX NSCLC
HCC-2998 colon = tested on: HCC-2998 colon
HCT-116 colon = tested on: HCT-116 colon
HCT-15 colon = tested on: HCT-15 colon
HL-60(TB) leukemia = tested on: HL-60(TB) leukemia
HOP-62 NSCLC = tested on: HOP-62 NSCLC
HOP-92 NSCLC = tested on: HOP-92 NSCLC
HS 578T breast = tested on: HS 578T breast
HT29 colon = tested on: HT29 colon
IGROV1 ovarian = tested on: IGROV1 ovarian
K-562 leukemia = tested on: K-562 leukemia
KM12 colon = tested on: KM12 colon
LOX IMVI melanoma = tested on: LOX IMVI melanoma
M14 melanoma = tested on: M14 melanoma
MALME-3M melanoma = tested on: MALME-3M melanoma
MCF7 breast = tested on: MCF7 breast
MDA-MB-231 breast = tested on: MDA-MB-231 breast
MDA-MB-435 = tested on: MDA-MB-435
MOLT-4 leukemia = tested on: MOLT-4 leukemia
NCI-H226 lung = tested on: NCI-H226 lung
NCI-H23 lung = tested on: NCI-H23 lung
NCI-H460 lung = tested on: NCI-H460 lung
NCI-H522 lung = tested on: NCI-H522 lung
NCI/ADR-RES ovarian = tested on: NCI/ADR-RES ovarian
OVCAR-3 ovarian = tested on: OVCAR-3 ovarian
OVCAR-4 ovarian = tested on: OVCAR-4 ovarian
OVCAR-5 ovarian = tested on: OVCAR-5 ovarian
OVCAR-8 ovarian = tested on: OVCAR-8 ovarian
PC-3 prostate = tested on: PC-3 prostate
RPMI-8226 leukemia = tested on: RPMI-8226 leukemia
RXF 393 renal = tested on: RXF 393 renal
SF-268 CNS = tested on: SF-268 CNS
SF-295 CNS = tested on: SF-295 CNS
SF-539 CNS = tested on: SF-539 CNS
SK-MEL-2 melanoma = tested on: SK-MEL-2 melanoma
SK-MEL-28 melanoma = tested on: SK-MEL-28 melanoma
SK-MEL-5 melanoma = tested on: SK-MEL-5 melanoma
SK-OV-3 ovarian = tested on: SK-OV-3 ovarian
SN12C renal = tested on: SN12C renal
SNB-19 CNS = tested on: SNB-19 CNS
SNB-75 CNS = tested on: SNB-75 CNS
SR leukemia = tested on: SR leukemia
SW-620 colon = tested on: SW-620 colon
T-47D breast = tested on: T-47D breast
TK-10 renal = tested on: TK-10 renal
U251 CNS = tested on: U251 CNS
UACC-257 melanoma = tested on: UACC-257 melanoma
UACC-62 melanoma = tested on: UACC-62 melanoma
UO-31 renal = tested on: UO-31 renal

CCCCCCCCOC(=O)c1c(C)[nH]c(/C=C2\N=C(c3ccc[nH]3)C=C2OC)c1C
GI50 (786-0 renal): 40.7 nM
TGI (786-0 renal): 1320 nM
GI50 (A498 renal): 190 nM
TGI (A498 renal): 2000 nM
GI50 (A549 NSCLC): 118 nM
TGI (A549 NSCLC): 13300 nM
GI50 (ACHN renal): 32.2 nM
TGI (ACHN renal): 1770 nM
GI50 (BT-549 breast): 164 nM
TGI (BT-549 breast): 14400 nM
GI50 (CAKI-1 renal): < 21.4 nM
TGI (CAKI-1 renal): 4830 nM
GI50 (CCRF-CEM leukemia): < 17.8 nM
TGI (CCRF-CEM leukemia): > 27400 nM
GI50 (COLO 205 colon): 84.6 nM
TGI (COLO 205 colon): 2620 nM
GI50 (DU-145 prostate): 42.7 nM
TGI (DU-145 prostate): 9870 nM
GI50 (EKVX NSCLC): 120 nM
TGI (EKVX NSCLC): 9150 nM
GI50 (HCC-2998 colon): 39.8 nM
TGI (HCC-2998 colon): 3460 nM
GI50 (HCT-116 colon): < 17.7 nM
TGI (HCT-116 colon): 1250 nM
GI50 (HCT-15 colon): < 16.3 nM
TGI (HCT-15 colon): 3150 nM
GI50 (HL-60(TB) leukemia): 68.8 nM
TGI (HL-60(TB) leukemia): 4250 nM
GI50 (HOP-62 NSCLC): 230 nM
TGI (HOP-62 NSCLC): 11700 nM
GI50 (HOP-92 NSCLC): 45.6 nM
TGI (HOP-92 NSCLC): 228 nM
GI50 (HS 578T breast): 49.4 nM
TGI (HS 578T breast): 578 nM
GI50 (HT29 colon): < 17.9 nM
TGI (HT29 colon): 1430 nM
GI50 (IGROV1 ovarian): 41.4 nM
TGI (IGROV1 ovarian): 6810 nM
GI50 (K-562 leukemia): 21.2 nM
TGI (K-562 leukemia): 14200 nM
GI50 (KM12 colon): 35.5 nM
TGI (KM12 colon): 1970 nM
GI50 (LOX IMVI melanoma): < 13.4 nM
TGI (LOX IMVI melanoma): < 20 nM
GI50 (M14 melanoma): 35.1 nM
TGI (M14 melanoma): 2010 nM
GI50 (MALME-3M melanoma): 641 nM
TGI (MALME-3M melanoma): 2670 nM
GI50 (MCF7 breast): 46.2 nM
TGI (MCF7 breast): 1670 nM
GI50 (MDA-MB-231 breast): < 18.2 nM
TGI (MDA-MB-231 breast): 517 nM
GI50 (MDA-MB-435): 22.6 nM
TGI (MDA-MB-435): 1410 nM
GI50 (MOLT-4 leukemia): < 20.1 nM
TGI (MOLT-4 leukemia): 18500 nM
GI50 (NCI-H226 lung): 87.3 nM
TGI (NCI-H226 lung): 6260 nM
GI50 (NCI-H23 lung): 96.5 nM
TGI (NCI-H23 lung): 2200 nM
GI50 (NCI-H460 lung): 76.5 nM
TGI (NCI-H460 lung): 11000 nM
GI50 (NCI-H522 lung): 31.6 nM
TGI (NCI-H522 lung): 4020 nM
GI50 (NCI/ADR-RES ovarian): 36.7 nM
TGI (NCI/ADR-RES ovarian): 9860 nM
GI50 (OVCAR-3 ovarian): 27.6 nM
TGI (OVCAR-3 ovarian): 422 nM
GI50 (OVCAR-4 ovarian): 34 nM
TGI (OVCAR-4 ovarian): 16800 nM
GI50 (OVCAR-5 ovarian): 94.3 nM
TGI (OVCAR-5 ovarian): 3450 nM
GI50 (OVCAR-8 ovarian): 45.9 nM
TGI (OVCAR-8 ovarian): 13800 nM
GI50 (PC-3 prostate): 46.7 nM
TGI (PC-3 prostate): > 34800 nM
GI50 (RPMI-8226 leukemia): 120 nM
TGI (RPMI-8226 leukemia): 2110 nM
GI50 (RXF 393 renal): 53.5 nM
TGI (RXF 393 renal): 1730 nM
GI50 (SF-268 CNS): 49.8 nM
TGI (SF-268 CNS): 7200 nM
GI50 (SF-295 CNS): 77.9 nM
TGI (SF-295 CNS): 639 nM
GI50 (SF-539 CNS): 52.9 nM
TGI (SF-539 CNS): 2620 nM
GI50 (SK-MEL-2 melanoma): 27.9 nM
TGI (SK-MEL-2 melanoma): 95.2 nM
GI50 (SK-MEL-28 melanoma): 250 nM
TGI (SK-MEL-28 melanoma): 6140 nM
GI50 (SK-MEL-5 melanoma): 16.9 nM
TGI (SK-MEL-5 melanoma): 81.9 nM
GI50 (SK-OV-3 ovarian): 899 nM
TGI (SK-OV-3 ovarian): 15900 nM
GI50 (SN12C renal): 60.1 nM
TGI (SN12C renal): 3550 nM
GI50 (SNB-19 CNS): 551 nM
TGI (SNB-19 CNS): > 46300 nM
GI50 (SNB-75 CNS): 45.1 nM
TGI (SNB-75 CNS): 432 nM
GI50 (SR leukemia): < 16.9 nM
TGI (SR leukemia): 1050 nM
GI50 (SW-620 colon): < 18.1 nM
TGI (SW-620 colon): 1560 nM
GI50 (T-47D breast): 55.6 nM
TGI (T-47D breast): 10400 nM
GI50 (TK-10 renal): 48.4 nM
TGI (TK-10 renal): 7290 nM
GI50 (U251 CNS): 25.8 nM
TGI (U251 CNS): 1650 nM
GI50 (UACC-257 melanoma): 188 nM
TGI (UACC-257 melanoma): 7450 nM
GI50 (UACC-62 melanoma): 29.5 nM
TGI (UACC-62 melanoma): 90.4 nM
GI50 (UO-31 renal): 37.7 nM
TGI (UO-31 renal): 108 nM
